Active and inactive are the calls of the source. No cut-off for these calls is given here.
What was measured:
[1] = biological target: T1, Potassium channel subfamily K member 2 (Homo sapiens) (UniProt O95069); assay: Activation of human TREK-1 expressed in CHO cells at 10 uM in presence of ML335 by patch clamp electrophysiology method; assay type: cell-based; conditions: filed as activator
T1 sequence (whole entry): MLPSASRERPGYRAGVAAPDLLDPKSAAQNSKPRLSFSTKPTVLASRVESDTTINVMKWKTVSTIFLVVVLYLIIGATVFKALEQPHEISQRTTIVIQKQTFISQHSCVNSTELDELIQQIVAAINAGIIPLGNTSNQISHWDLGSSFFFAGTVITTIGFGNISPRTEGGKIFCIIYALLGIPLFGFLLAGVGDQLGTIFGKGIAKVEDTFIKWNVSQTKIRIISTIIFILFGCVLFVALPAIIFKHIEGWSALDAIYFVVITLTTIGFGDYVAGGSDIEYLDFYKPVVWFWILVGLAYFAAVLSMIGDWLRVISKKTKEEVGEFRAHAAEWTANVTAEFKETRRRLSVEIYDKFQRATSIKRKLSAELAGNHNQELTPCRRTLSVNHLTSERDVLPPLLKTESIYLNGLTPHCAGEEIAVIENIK

[2] = Lipophilicity, logD of the compound; assay type: physicochemical; conditions: octanol/water
[3] = biological target: Potassium voltage-gated channel subfamily KQT member 2 (Homo sapiens) (UniProt O43526); assay: Agonist activity at human KCNQ2 expressed in CHO cells assessed as increase in outward current at 10 uM at 50 mV by patch clamp electrophysiology method; assay type: cell-based; conditions: filed as agonist
Chain of Potassium voltage-gated channel subfamily KQT member 2 (Homo sapiens) (O43526 whole entry): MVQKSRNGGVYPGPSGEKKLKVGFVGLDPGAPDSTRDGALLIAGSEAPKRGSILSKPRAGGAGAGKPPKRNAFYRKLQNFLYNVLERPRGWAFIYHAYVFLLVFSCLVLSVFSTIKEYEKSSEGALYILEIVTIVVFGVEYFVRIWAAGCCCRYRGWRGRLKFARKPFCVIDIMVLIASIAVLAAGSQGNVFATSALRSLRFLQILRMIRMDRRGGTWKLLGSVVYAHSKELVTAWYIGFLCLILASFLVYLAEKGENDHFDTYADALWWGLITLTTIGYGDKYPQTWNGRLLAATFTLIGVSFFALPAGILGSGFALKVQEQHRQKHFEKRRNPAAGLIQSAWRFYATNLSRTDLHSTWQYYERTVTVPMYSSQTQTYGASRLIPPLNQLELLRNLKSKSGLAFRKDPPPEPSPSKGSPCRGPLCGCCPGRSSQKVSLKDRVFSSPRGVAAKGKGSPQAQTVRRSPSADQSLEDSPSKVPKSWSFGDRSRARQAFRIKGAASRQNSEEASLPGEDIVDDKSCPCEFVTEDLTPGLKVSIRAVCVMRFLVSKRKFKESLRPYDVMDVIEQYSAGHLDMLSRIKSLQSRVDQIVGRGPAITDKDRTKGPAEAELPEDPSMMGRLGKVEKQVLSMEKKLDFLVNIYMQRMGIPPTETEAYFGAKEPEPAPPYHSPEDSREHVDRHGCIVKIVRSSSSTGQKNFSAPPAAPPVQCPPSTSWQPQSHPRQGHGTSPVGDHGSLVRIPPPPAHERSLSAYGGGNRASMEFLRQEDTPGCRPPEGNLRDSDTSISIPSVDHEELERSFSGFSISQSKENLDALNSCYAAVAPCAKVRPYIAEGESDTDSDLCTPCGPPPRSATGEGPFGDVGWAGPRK

[4] = biological target: Potassium voltage-gated channel subfamily KQT member 5 (Homo sapiens, UniProt Q9NR82); assay: Agonist activity at human KCNQ5 channel expressed in CHO cells assessed as increase in outward current by patch clamp electrophysiology method; assay type: cell-based
Chain of Potassium voltage-gated channel subfamily KQT member 5 (Q9NR82 whole entry): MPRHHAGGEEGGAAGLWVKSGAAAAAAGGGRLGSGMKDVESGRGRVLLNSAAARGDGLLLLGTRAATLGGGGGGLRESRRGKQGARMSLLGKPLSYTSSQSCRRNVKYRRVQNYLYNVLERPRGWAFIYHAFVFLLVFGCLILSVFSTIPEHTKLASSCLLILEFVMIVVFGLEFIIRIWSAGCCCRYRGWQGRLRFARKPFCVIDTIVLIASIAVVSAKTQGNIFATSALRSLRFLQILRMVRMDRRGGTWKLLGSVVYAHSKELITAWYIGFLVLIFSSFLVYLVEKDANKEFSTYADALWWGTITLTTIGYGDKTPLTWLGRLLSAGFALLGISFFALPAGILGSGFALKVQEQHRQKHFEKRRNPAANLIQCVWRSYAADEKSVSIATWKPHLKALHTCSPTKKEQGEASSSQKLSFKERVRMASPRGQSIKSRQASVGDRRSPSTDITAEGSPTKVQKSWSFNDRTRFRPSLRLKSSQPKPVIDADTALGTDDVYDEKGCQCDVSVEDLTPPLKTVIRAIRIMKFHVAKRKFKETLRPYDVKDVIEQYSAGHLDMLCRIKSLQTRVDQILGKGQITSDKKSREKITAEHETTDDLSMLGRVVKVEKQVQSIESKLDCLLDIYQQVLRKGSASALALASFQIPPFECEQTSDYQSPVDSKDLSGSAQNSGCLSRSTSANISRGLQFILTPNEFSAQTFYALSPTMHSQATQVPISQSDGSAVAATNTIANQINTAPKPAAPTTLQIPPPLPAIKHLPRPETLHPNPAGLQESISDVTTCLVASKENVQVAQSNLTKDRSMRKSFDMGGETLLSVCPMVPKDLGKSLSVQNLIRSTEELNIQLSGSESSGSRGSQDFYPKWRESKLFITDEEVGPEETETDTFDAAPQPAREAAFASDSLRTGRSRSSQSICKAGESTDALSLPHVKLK

[5] = biological target: T2, Potassium voltage-gated channel subfamily KQT member 4 (Homo sapiens, UniProt P56696); assay: Agonist activity at human KCNQ4 channel expressed in CHO cells assessed as increase in outward current by patch clamp electrophysiology method; assay type: cell-based
T2 sequence (P56696 whole entry): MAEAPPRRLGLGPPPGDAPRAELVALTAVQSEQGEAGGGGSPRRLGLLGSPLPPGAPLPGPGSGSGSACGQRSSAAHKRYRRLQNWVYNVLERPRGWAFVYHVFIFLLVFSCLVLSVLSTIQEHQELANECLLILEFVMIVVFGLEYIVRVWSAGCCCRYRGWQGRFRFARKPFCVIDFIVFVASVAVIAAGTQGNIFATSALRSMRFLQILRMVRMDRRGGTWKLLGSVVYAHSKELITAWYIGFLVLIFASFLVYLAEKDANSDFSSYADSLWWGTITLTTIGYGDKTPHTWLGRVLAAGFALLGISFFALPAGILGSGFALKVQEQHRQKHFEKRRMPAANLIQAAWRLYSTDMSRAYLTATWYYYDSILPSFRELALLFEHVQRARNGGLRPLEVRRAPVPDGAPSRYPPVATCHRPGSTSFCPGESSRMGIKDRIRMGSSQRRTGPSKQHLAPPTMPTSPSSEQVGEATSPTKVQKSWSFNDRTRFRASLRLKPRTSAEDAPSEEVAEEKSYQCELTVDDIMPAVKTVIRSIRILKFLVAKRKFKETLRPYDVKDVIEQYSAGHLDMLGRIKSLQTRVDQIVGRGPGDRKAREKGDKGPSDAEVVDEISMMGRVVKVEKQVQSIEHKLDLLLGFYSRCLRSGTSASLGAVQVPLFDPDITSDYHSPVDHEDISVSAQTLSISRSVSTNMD

Compound	Activity [1]	logD [2]	further results
c1ccc(-c2nnn[nH]2)c(Nc2cccc3c2CCCC3)c1	Active	–	–
Cc1ccc(CSCc2nnc(SCC(=O)Nc3ccc(Br)cc3F)n2C)cc1	–	4.38	–
O=C(Nc1ccc(Cl)nc1)c1ccc(F)cc1	–	–	Activity [3]: Active
Cc1ccc(CSCc2nnc(SCC(=O)Nc3ccc(Br)cc3I)n2C)cc1	–	4.66	–
Cc1ccc(CSCc2nnc(SCC(=O)Nc3ccc(Br)cc3Br)n2C)cc1	–	4.79	EC50 [4]: 4.5 µM; EC50 [5]: 6.4 µM
O=C(O)c1ccccc1Nc1ccc(CCc2ccc(Cl)c(Cl)c2)cc1	Active	–	–
